In ChEMBL document CHEMBL1132067, “Cytotoxic effects of NSL-1406, a new thienopyrimidine derivative, on leukocytes and osteoclasts” (Bioorg Med Chem Lett, 1999):

Assays:
P388 [1] = assay: Cytotoxicity against P388 cells is the dose giving 50% decrease in the formation of formazan dye; assay type: functional, cell-based; settings: Mus musculus
P388 [2] = assay: Dose giving a 50% decrease in the living cell number (P388 cells); assay type: functional; settings: Mus musculus, read-out: LD50 (the source's name)
A-431 [3] = assay: Cytotoxicity against […] cells is the dose giving 50% decrease in the formation of formazan dye; assay type: functional, cell-based; settings: Homo sapiens
ECV-304 [4] = assay: Dose giving a 50% decrease in the living cell number (ECV-304 cells); assay type: functional; settings: Homo sapiens, read-out: LD50 (the source's name)
ECV-304 [5] = assay: Cytotoxicity against ECV-304 cells is the dose giving 50% decrease in the formation of formazan dye; assay type: functional, cell-based; settings: Homo sapiens
HL-60 [6] = assay: Dose giving a 50% decrease in the living cell number (HL-60 cells); assay type: functional; settings: Homo sapiens, read-out: LD50 (the source's name)
HL-60 [7] = assay: Cytotoxicity against HL-60 cells is the dose giving 50% decrease in the formation of formazan dye; assay type: functional, cell-based; settings: Homo sapiens
J774 [8] = assay: Cytotoxicity against J774 cells is the dose giving 50% decrease in the formation of formazan dye; assay type: functional, cell-based; settings: Mus musculus
J774 [9] = assay: Dose giving a 50% decrease in the living cell number (J774 cells); assay type: functional; settings: Mus musculus, read-out: LD50 (the source's name)
A-431 [10] = assay: Dose giving a 50% decrease in the living cell number ([…] cells); assay type: functional; settings: Homo sapiens, read-out: LD50 (the source's name)

SMILES	IC50 (P388 [1])	CC50 (P388 [2])	also measured
Cc1csc2ncnc(NCCc3ccccc3)c12	29 nM	43 µM	–
Cc1csc2ncnc(NCCc3ccc(O)cc3)c12	190 nM	86 µM	–
Clc1ccc(CCNc2ncnc3sccc23)cc1	35 nM	73 µM	–
Cc1csc2ncnc(NCc3ccc(Cl)cc3)c12	170 nM	74 µM	–
Cc1csc2ncnc(NCCc3ccc(F)cc3)c12	29 nM	68 µM	–
COc1ccc(CCNc2ncnc3scc(C)c23)cc1	7.4 nM	46 µM	–
Cc1csc2ncnc(NCCc3ccc(Cl)cc3)c12	5.2 nM	35 µM	IC50 (A-431 [3]): 20 µM; CC50 (ECV-304 [4]): 53 µM; IC50 (ECV-304 [5]): 34 µM; CC50 (HL-60 [6]): 67 µM; IC50 (HL-60 [7]): 8.5 nM; IC50 (J774 [8]): 5 nM; CC50 (J774 [9]): 43 µM; CC50 (A-431 [10]): 51 µM
Clc1ccc(CCNc2ncnc3ccsc23)cc1	29 nM	41 µM	–
Clc1ccc(CCNc2[nH]cnc3ncnc2-3)cc1	7300 nM	96 µM	–
Cc1csc2ncnc(NCCC(=O)O)c12	12000 nM	250 µM	–
Cc1csc2ncnc(NCCc3ccc(Br)cc3)c12	1.1 nM	58 µM	–
Cc1csc2ncnc(Cl)c12	33000 nM	490 µM	–
CCCNc1ncnc2scc(C)c12	5500 nM	85 µM	–
Cc1csc2ncnc(NCCCc3ccc(Cl)cc3)c12	1300 nM	98 µM	–
Cc1csc2ncnc(NCCc3ccc(N)cc3)c12	22 nM	39 µM	–
